In patent publication US20250214960A1, “COMPOUNDS HAVING ACTIVITY OF DEGRADING GSPT1 AND APPLICATION THEREOF” (SHANGHAI MEIZER PHARMACEUTICALS CO., LTD., priority 2021, published 2025):
Where two headings read alike, the source gives them in different places.

What was measured:
Type in all cases: cell-based
HNT-34 cells = assay: CTG method, inhibition of HNT-34 cell proliferation; conditions: HNT-34, 72 hours; read-out: Cellular proliferation inhibition IC50
Description: (§1) Test Example 2: CTG Method for Detecting the Inhibitory Effect of Compounds of Formula on the Proliferation of HNT 34 or HL-60 Cells
(§2) HNT-34 or HL-60 cells were taken and cultured in RPMI1640 medium containing 20% fetal bovine serum. The cells were inoculated on a 96 well plate, with 1×10^4 cells per well, and incubated at 37° C. in a […] incubator. After adding the test compound, it was incubated for 72 hours. Then an appropriate amount of CTG reagent was added, the luminescence value was measured, and the inhibition rate was calculated.

HL-60 cells = assay: CTG method, inhibition of HL-60 cell proliferation; conditions: Homo sapiens; HL-60, 72 hours; read-out: Cellular proliferation inhibition IC50
Description: as §1, §2

Jeko-1 cells = assay: CCK8 method, inhibition of Jeko-1 cell proliferation; conditions: Homo sapiens; Jeko-1, 72 hours; read-out: Cellular proliferation inhibition IC50
Description: Test Example 3: CCK8 Method for Detecting Inhibition of Jeko-1 Cell Proliferation by Compound of Formula
Cell culture: The Jeko-1 cell line (human lymphoma cells) was cultured in RPMI-1640 complete medium containing […] and 1% penicillin streptomycin, and incubated in an incubator at 37° C., 5% CO2, and saturated humidity.
Cell laying: Jeko-1 cells in logarithmic growth phase was taken, centrifuged, and an appropriate amount of complete culture medium was added to obtain a single-cell suspension, a hemocytometer was used for cell counting, and a cell suspension of 1.5×10^5 cells/mL was prepared, the cells were inoculated into a 96 well culture plate at a rate of 100 μL cell suspension per well and incubated in a CO2 cell incubator for 24 hours.
CCK-8 detection: 72 hours after administration, 10% CCK-8 solution was added to each well, placed in a CO2 cell culture incubator, and incubated for 1-4 hours. The absorbance of each well was measured using a microplate reader at 450 nm.
Calculation of cellular proliferation inhibition rate:
Cellular proliferation inhibition rate (%)=[(Ac−As)/(Ac−Ab)]×100% • As: absorbance in experimental wells (including cells, culture medium, CCK-8 solution, and drug solution) • Ac: absorbance in control wells (including cells, culture medium, CCK-8 solution, without drugs) • Ab: absorbance in blank wells (including culture medium, CCK-8 solution, without cells or drugs)

GSPT1 protein = target: T1, GSPT1 protein (Homo sapiens, UniProt P15170+Q96SW2); assay: Western blot detection of degradation activity of GSPT1 protein in Jeko-1 cells; conditions: JeKo-1, 24 h, read-out: GSPT1 degradation rate (%)
T1 construct: endogenous in cells; host or cells: Jeko-1
T1 sequence (P15170 whole entry): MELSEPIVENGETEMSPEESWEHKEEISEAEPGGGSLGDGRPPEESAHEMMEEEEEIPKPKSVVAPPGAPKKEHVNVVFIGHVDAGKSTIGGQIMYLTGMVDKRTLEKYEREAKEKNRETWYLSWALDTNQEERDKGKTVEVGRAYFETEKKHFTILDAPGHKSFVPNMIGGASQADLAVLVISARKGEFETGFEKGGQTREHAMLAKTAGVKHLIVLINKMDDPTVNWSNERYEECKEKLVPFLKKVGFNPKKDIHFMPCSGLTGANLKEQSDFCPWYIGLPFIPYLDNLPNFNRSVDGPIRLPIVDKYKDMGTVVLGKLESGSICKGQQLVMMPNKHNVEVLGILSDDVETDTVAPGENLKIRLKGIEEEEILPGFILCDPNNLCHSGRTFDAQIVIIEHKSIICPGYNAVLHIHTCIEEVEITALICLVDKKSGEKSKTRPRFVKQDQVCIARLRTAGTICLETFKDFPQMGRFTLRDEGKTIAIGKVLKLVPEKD
T1 sequence (Q96SW2 whole entry): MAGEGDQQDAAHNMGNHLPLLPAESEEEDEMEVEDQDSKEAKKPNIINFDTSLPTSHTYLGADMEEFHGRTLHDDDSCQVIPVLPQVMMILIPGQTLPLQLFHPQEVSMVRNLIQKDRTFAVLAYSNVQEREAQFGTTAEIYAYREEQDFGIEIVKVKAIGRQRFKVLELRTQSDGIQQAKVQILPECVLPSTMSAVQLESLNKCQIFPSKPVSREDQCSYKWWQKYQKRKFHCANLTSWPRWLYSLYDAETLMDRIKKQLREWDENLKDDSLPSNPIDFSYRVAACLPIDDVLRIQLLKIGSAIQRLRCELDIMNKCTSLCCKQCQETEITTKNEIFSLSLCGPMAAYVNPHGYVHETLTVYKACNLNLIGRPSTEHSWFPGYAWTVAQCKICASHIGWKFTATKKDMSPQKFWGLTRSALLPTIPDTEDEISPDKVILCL
T1 sequence (Q16531 whole entry partner): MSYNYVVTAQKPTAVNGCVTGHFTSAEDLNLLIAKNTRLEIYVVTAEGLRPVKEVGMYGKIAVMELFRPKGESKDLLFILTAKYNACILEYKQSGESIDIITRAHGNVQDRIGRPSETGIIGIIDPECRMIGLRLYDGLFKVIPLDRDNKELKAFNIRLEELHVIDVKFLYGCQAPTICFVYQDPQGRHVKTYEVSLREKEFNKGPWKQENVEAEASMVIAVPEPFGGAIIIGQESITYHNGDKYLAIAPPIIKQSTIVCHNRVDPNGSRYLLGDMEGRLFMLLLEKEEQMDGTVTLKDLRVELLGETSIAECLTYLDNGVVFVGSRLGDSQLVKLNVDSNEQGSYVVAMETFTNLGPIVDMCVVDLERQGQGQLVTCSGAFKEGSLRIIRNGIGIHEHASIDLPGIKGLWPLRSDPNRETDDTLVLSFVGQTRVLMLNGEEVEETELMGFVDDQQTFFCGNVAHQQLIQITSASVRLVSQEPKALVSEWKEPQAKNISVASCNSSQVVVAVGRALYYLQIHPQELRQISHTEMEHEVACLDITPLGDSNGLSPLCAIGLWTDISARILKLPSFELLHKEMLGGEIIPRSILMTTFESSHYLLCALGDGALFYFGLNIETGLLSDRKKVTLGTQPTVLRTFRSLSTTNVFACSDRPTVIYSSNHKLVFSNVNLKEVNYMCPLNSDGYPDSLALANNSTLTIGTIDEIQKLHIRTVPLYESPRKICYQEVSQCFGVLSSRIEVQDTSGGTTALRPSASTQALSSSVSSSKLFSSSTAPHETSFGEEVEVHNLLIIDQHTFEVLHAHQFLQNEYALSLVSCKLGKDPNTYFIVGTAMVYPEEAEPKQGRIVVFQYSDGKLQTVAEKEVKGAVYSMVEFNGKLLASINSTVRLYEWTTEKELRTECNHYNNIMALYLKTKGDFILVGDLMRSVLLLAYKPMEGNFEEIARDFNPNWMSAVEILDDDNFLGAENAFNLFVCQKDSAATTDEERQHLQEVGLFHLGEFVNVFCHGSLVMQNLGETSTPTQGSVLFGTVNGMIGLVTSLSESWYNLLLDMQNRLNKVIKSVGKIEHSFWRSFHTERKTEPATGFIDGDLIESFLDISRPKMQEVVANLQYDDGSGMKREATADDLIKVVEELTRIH
Description: Test Example 1: Western Blot Detection of Degradation Activity of GSPT1 Protein by the Compounds
Cell line: Jeko-1 cell line was cultured with an RPMI1640 media containing 20% fetal bovine serum in an incubator at 37° C., 5% CO2, and saturated humidity.
DMSO control group and test compound (concentration shown in the table below) were set up, after processing for 24 hours, the cells were collected, pre-cooled cell lysate was added and left on ice for 10 minutes. The total protein of the cells was extracted, and the protein concentration was measured and quantified using the BCA method. Routine gel preparation, sample loading, electrophoresis were conducted, then the membrane was transferred, and sealed, wherein the primary antibody was diluted with a blocking solution at 1:500-5000. The membrane was immersed in the diluted primary antibody and incubated overnight at 4° C. After rinsing, the secondary antibody was diluted with a sealing solution at 1:10000-20000, the membrane was immersed in the diluted secondary antibody, and incubated at room temperature for 45 minutes. After rinsing, the results were tested on ODYSSEY (Li-COR). GAPDH was used as an internal reference control.
Image J software was used to perform gray level analysis on each band and the degradation rate of GSPT1 protein by the compounds was calculated.

Structure (SMILES)	IC50 (HNT-34 cells) [nM]	IC50 (HL-60 cells) [nM]	IC50 (Jeko-1 cells) [nM]	inhibition at 0.1 µM (GSPT1 protein; 100 nM, Jeko-1 cells, 24 hours) [%]	inhibition at 10 µM (GSPT1 protein; 10 μM, Jeko-1 cells, 24 hours) [%]	inhibition at 0.1 µM (GSPT1 protein) [%]	inhibition at 10 µM (GSPT1 protein) [%]
CC(C)(C)OC(=O)N[C@@H](CC1CCCCC1)C(=O)NCc1ccc2c(c1)CN(C1CCC(=O)NC1=O)C2=O (stereo partly drawn) [Compound 5-46, Tert butyl ((2S)-3-cyclohexyl-1-(2-((2,6-dioxopyridin-3-yl)-1-oxoisoidoline-5-yl)methyl)amino)-1-oxopropan-2-yl) carbamate]	3.7	8.3	0.2	90.6	93.6		
CC(C)C1CC[C@H](C)C[C@@H]1OC(=O)N[C@H](C(=O)NCc1ccc2c(c1)CN(C1CCC(=O)NC1=O)C2=O)c1ccccc1 (some centres unmarked) [Compound 4-175]			0.03			93	90
CC(C)(C)OC(=O)N[C@H](C(=O)NCc1ccc2c(c1)CN(C1CCC(=O)NC1=O)C2=O)c1ccc(F)c(Cl)c1 (some centres unmarked) [Compound 4-152, Tert butyl (1-(3-chloro-4-fluorophenyl)-2-((2-(2,6-dioxopyridin-3-yl)-1-oxoisoindoline-5-yl)methyl)amino)-2-oxoethyl) carbamate]	6.6	7.9	0.7	93	82		
CN(C(=O)OC(C)(C)C)[C@H](C(=O)NCc1ccc2c(c1)CN(C1CCC(=O)NC1=O)C2=O)c1ccccc1 (stereo partly drawn) [Compound 4-135, Tert butyl ((1S)-2-((2-(2,6-dioxypiperidin-3-yl)-1-oxoisoindoline-5-yl)methyl)amino)-2-oxo-1-phenylethy 1) (methyl) carbamate]	6.2	14.3		80	93		
CCN(C(=O)OC(C)(C)C)[C@H](C(=O)NCc1ccc2c(c1)CN(C1CCC(=O)NC1=O)C2=O)c1ccccc1 (stereo partly drawn) [Compound 1-89, Tert butyl ((1S)-2-((2-(2,6-dioxypiperidin-3-yl)-1-oxoisoindoline-5-yl)methyl)amino)-2-oxo-1-phenylethy 1) (ethyl) carbamate]	3.8	5		97.8	98.7		
CC(C)C[C@@H](NC(=O)OC(C)(C)C)C(=O)NCc1ccc2c(c1)CN(C1CCC(=O)NC1=O)C2=O (stereo partly drawn) [Compound 4-123, Tert butyl ((2R)-1-((2-(2,6-dioxypiperidin-3-yl)-1-oxoidoline-5-yl)methyl)amino)-4-methyl-1-oxolan-2-yl) carbamate]	26.9	28.9		79.9	92.7		
Cc1ccc([C@H](NC(=O)OC(C)(C)C)C(=O)NCc2ccc3c(c2)CN(C2CCC(=O)NC2=O)C3=O)cc1 (stereo partly drawn) [Compound 4-166, Tert butyl ((1S)-2-((2-(2,6-dioxypiperidin-3-yl)-1-oxoisoindoline-5-yl)methyl)amino)-2-oxo-1-(p-tolyl) ethyl) carbamate]	11.3	12.8		82	93		
CC[C@H](C)[C@@H](CC(=O)NCc1ccc2c(c1)CN(C1CCC(=O)NC1=O)C2=O)NC(=O)OC(C)(C)C (stereo partly drawn) [Compound 5-97, Tert butyl ((3R,4S)-1-((2-(2,6-dioxypiperidin-3-yl)-1-oxoisoidoline-5-yl)methyl)amino)-4-methyl-1-oxohexane-3-yl) carbamate]	6.9	11		97	98		
CC(C)(C)OC(=O)N[C@H](C(=O)NCc1ccc2c(c1)CN(C1CCC(=O)NC1=O)C2=O)c1ccccc1 (stereo partly drawn) [Compound 4-87, Tert butyl ((1S)-2-((2-(2,6-dioxopiperidin-3-yl)-1-oxoisoindolin-5-yl)methyl)amino)-2-oxo-1-phenylethyl) carbamate]			0.2	89	93		
CC(C)(C)OC(=O)N[C@@H](Cc1ccccc1)C(=O)NCc1ccc2c(c1)CN(C1CCC(=O)NC1=O)C2=O (stereo partly drawn) [Compound 5-37, Tert butyl ((2S)-1-(2-(2,6-dioxypiperidin-3-yl)-1-oxoisoindoline-5-yl)methyl) amino)-1-oxo-3-phenylprop-2-yl) carbamate]			0.6	97.8	99.5		
CC(C)(C)OC(=O)NCC(C(=O)NCc1ccc2c(c1)CN(C1CCC(=O)NC1=O)C2=O)c1ccc(Cl)cc1 (centres unmarked) [Compound 5-41, Tert butyl (2-(4-chlorophenyl)-3-((2-(2,6-dioxypiperidin-3-yl)-1-oxoisoindoline-5-yl)methyl)amino)-3-oxopropyl) carbamate]			0.04	96.9	96.7		
CN(C(=O)OC1CCCC1)[C@H](C(=O)NCc1ccc2c(c1)CN(C1CCC(=O)NC1=O)C2=O)c1ccccc1 (stereo partly drawn) [Compound 5-36, Cyclopentyl ((1S)-2-((2-(2,6-dioxypiperidin-3-yl)-1-oxoisoindoline-5-yl)methyl)amino)-2-oxo-1-phenylethyl) (methyl) carbamate]			1			97	97
O=C1CCC(N2Cc3cc(CNC(=O)[C@@H](NC(=O)OC4CCCC4)c4ccccc4)ccc3C2=O)C(=O)N1 (stereo partly drawn) [Compound 4-159, Cyclopentyl (1S)-2-((2-(2,6-dioxypiperidin-3-yl)-1-oxoisoindoline-5-yl)methyl)amino)-2-oxo-1-phenylethyl) carbamate]			0.02			93	99
CC(C)CC(CNC(=O)OC(C)(C)C)C(=O)NCc1ccc2c(c1)CN(C1CCC(=O)NC1=O)C2=O (centres unmarked) [Compound 5-33]	32.7	35.4		52	80		
O=C1CCC(N2Cc3cc(CNC(=O)[C@H](CC4CCCCC4)NC(=O)CC4CCCC4)ccc3C2=O)C(=O)N1 (stereo partly drawn) [Compound 5-92, (2S)-3-cyclohexyl-2-(2-cyclopentylacetamido)-N-((2-(2,6-dioxypiperidin-3-yl)-1-oxoisoindoline-5-yl)methyl) propionamide]	25.2	25.2		79	97		
CC(C)(C)OC(=O)NC(C(=O)NCc1ccc2c(c1)CN(C1CCC(=O)NC1=O)C2=O)c1ccccc1F (centres unmarked) [Compound 5-5, Tert butyl (2-((2-(2,6-dioxypiperidin-3-yl)-1-oxoisoidoline-5-yl)methyl)amino)-1-(2-fluorophenyl)-2-oxoethyl) carbamate]			0.2	100	100		
CC(C)(C)OC(=O)NC(C(=O)NCc1ccc2c(c1)CN(C1CCC(=O)NC1=O)C2=O)c1ccc(Cl)c(Cl)c1 (centres unmarked) [Compound 4-151, Tert butyl (1-(3,4-dichlorophenyl)-2-((2-(2,6-dioxopyridin-3-yl)-1-oxoisoindoline-5-yl)methyl)amino)-2-oxoethyl) carbamate]	7.8	11.6	1.3	77	95		
CC(C)(C)OC(=O)N[C@H](C(=O)NCc1ccc2c(c1)CN(C1CCC(=O)NC1=O)C2=O)c1ccc(Br)cc1 (stereo partly drawn) [Compound 5-7, Tert butyl ((1S)-1-(4-bromophenyl)-2-((2-(2,6-dioxopyridin-3-yl)-1-oxoisoidoline-5-yl)methyl)amino)-2-oxoethyl) carbamate]	8.7	12.4		94	100		
